Several values for one entry are separate records, joined by “and”; a condition that tells them apart may be missing. Equal values may be shown once.
Test system: 415267-285-R-J2-PDC complex spheroid viability
Assay: Anticancer human tumor 415267-285-R-J2-PDC patient-derived breast carcinoma cell line growth inhibition [POLQ]
Settings: for viability, T/C: stronger effect = lower value
Procedure: Multicellular complex tumor spheroid response to Polymerase (POL) inhibitors (novobiocin, ART-558, RP6685) in combination with a variety of drugs and investigational agents in selected tumor cell lines
The POL inhibitors (novobiocin, ART-558, and RP6685) were evaluated both individually and in combination with standard of care and investigational anticancer small molecules within a complex spheroid model of solid tumors. . Complex spheroids include a stromal component modeled by human endothelial cells (HUVEC) and fibroblasts modeled by human mesenchymal stem cells (MSCs). The concentration ranges selected for each drug and investigational agent were based upon clinically achievable concentrations if the clinical Cmax of the agent was known.
Compounds. The drugs and investigational agents: novobiocin (NSC847541), ART-558 (NSC835418), RP-6685 (NSC848927), peposertib (NSC802822), ceralasertib (NSC780249), elimusertib (NSC800525), camonsertib (NSC841442), AZD-1390 (NSC803789), olaparib (NSC753686), talazoparib (NSC767125), rucaparib (NSC756644), sotorasib (NSC818433), MRTX-1133 (NSC836407), SN-38 (NSC673596), topotecan (NSC609699), epotoside (NSC141540), doxorubicin (NSC123127), gemcitabine (NSC613327), 5-fluorouracil (NSC19893), paclitaxel (NSC125973), vemurafenib (NSC761431), MSA-2 (NSC828583), SN-011 (NSC837082), adavosertib (NSC754352), prexasertib (NSC758257), carboplatin (NSC241240) and oxaliplatin (NSC266046), were obtained from the National Cancer Institute (NCI) Developmental Therapeutics Program Chemical Repository (21). The FDA-approved anticancer drug set is available from the Developmental Therapeutics Program at https://dtp.cancer.gov/organization/dscb/obtaining/. […] The stock solutions were prepared in dimethyl sulfoxide (DMSO, Sigma-Aldrich, St. Louis, MO, cat. D2650), except for the platinum compounds which were prepared in saline (Quality Biological, Gaithersburg, MD, cat. 114-055-101), at 800-fold the tested concentration and stored at -70 degrees C prior to their use. All drugs and investigational agents were tested over a range starting from a high concentration at or near the clinical Cmax and decreasing in half-log increments. If the clinical Cmax for an agent had not been determined, the highest concentration tested was 10 microM, except for SN-38, which was tested at a high concentration of 1 microM.
Cell Culture. All cells were maintained in an incubator at 37 degrees C and 5% CO2 with 95% humidity. The PDC lines were cultured according to standard operating procedures established by the NCI PDMR (https://pdmr.cancer.gov). Table 3 of the manuscript, lists the cell lines along with the number of the three cell types plated to form the mct-spheroids and media for tumor cell growth. After thawing, all PDC lines, except 997537-175-T-J1-PDC and 415267-285-R-J2-PDC, were cultured in Matrigel-coated flasks prepared with a working solution of 1X Ham's F-12 nutrient mix, without supplementation (Thermo Fisher Scientific, cat. 11765054), 100 U/mL penicillin-streptomycin (Thermo Fisher Scientific, cat. 15140122), and 2.5% Matrigel (Corning Inc., Corning, NY, cat. 354248) for the first three passages. The two PDC lines 997537-175-T-J1-PDC and 415267-285-R-J2-PDC were cultured on uncoated flasks. The 857933-349-R-J2-PDC line was cultured in 6C/Colon 1B media containing advanced DMEM/F-12 (Thermo Fisher Scientific, cat. 12634028), 10 mM HEPES (Thermo Fisher Scientific, cat. 15630080), 1X GlutaMAX supplement (Thermo Fisher Scientific, cat. 35050061), 0.1 mg/mL primocin (InvivoGen, San Diego, CA, cat. ant-pm-2), 10% defined fetal bovine serum, heat inactivated (HyClone Laboratories Inc., Logan, UT, cat. SH30070.03HI), 50% L-WRN conditioned media (ATCC, cat. CRL-3276), 1.25 mM N-Acetyl-L-cysteine (Sigma-Aldrich, cat. A9165), 10 mM nicotinamide (Sigma-Aldrich, cat. N0636), 1X B-27 supplement (Thermo Fisher Scientific, cat. 17504044), 1X N-2 supplement (Thermo Fisher Scientific, cat. […]

[1] = curve of first compound, second compound 0.0316 µM
[2] = curve of first compound, second compound 0.1 µM
[3] = curve of first compound, second compound 0.316 µM
[4] = curve of first compound, second compound 1 µM
[5] = curve of first compound, second compound 3.16 µM
[6] = curve of first compound, second compound 10 µM
[7] = second compound 0.0316 µM, first compound 0.0316 µM
[8] = second compound 0.0316 µM, first compound 0.1 µM
[9] = second compound 0.0316 µM, first compound 0.316 µM
[10] = second compound 0.0316 µM, first compound 1 µM
[11] = second compound 0.1 µM, first compound 0.0316 µM
[12] = second compound 0.1 µM, first compound 0.1 µM
[13] = second compound 0.1 µM, first compound 0.316 µM
[14] = second compound 0.1 µM, first compound 1 µM
[15] = second compound 0.316 µM, first compound 0.0316 µM
[16] = second compound 0.316 µM, first compound 0.1 µM
[17] = second compound 0.316 µM, first compound 0.316 µM
[18] = second compound 0.316 µM, first compound 1 µM
[19] = second compound 1 µM, first compound 0.0316 µM
[20] = second compound 1 µM, first compound 0.1 µM
[21] = second compound 1 µM, first compound 0.316 µM
[22] = second compound 1 µM, first compound 1 µM
[23] = second compound 3.16 µM, first compound 0.0316 µM
[24] = second compound 3.16 µM, first compound 0.1 µM
[25] = second compound 3.16 µM, first compound 0.316 µM
[26] = second compound 3.16 µM, first compound 1 µM
[27] = second compound 10 µM, first compound 0.0316 µM
[28] = second compound 10 µM, first compound 0.1 µM
[29] = second compound 10 µM, first compound 0.316 µM
[30] = second compound 10 µM, first compound 1 µM
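Also: spheroids exposed to compounds for one week before readout.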
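For viability, T/C in this document: luminescence used as stand-in measure of viable cells; 100% = DMSO vehicle control viability.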

## O=c1[nH]cc(F)c(=O)[nH]1 + COC1C(OC(N)=O)C(O)C(Oc2ccc3c(O)c(NC(=O)c4ccc(O)c(CC=C(C)C)c4)c(=O)oc3c2C)OC1(C)C
[1]
  IC50: 194 nM
[2]
  IC50: 197 nM
[3]
  IC50: 162 nM
[4]
  IC50: 176 nM
[5]
  IC50: 205 nM
[6]
  IC50: 203 nM
[7]
  viability, T/C: 94.1%
[8]
  viability, T/C: 72.7%
[9]
  viability, T/C: 33.1%
[10]
  viability, T/C: 31.1%
Second compound 0.0316 µM, first compound 3.16 µM
  viability, T/C: 27.2%
Second compound 0.0316 µM, first compound 10 µM
  viability, T/C: 37.1%
[11]
  viability, T/C: 86.9%
[12]
  viability, T/C: 73.1%
[13]
  viability, T/C: 34.2%
[14]
  viability, T/C: 23.7%
Second compound 0.1 µM, first compound 3.16 µM
  viability, T/C: 26.5%
Second compound 0.1 µM, first compound 10 µM
  viability, T/C: 39.3%
[15]
  viability, T/C: 97.7%
[16]
  viability, T/C: 63.8%
[17]
  viability, T/C: 31%
[18]
  viability, T/C: 27.2%
Second compound 0.316 µM, first compound 3.16 µM
  viability, T/C: 26.7%
Second compound 0.316 µM, first compound 10 µM
  viability, T/C: 34.5%
[19]
  viability, T/C: 85.8%
[20]
  viability, T/C: 63.5%
[21]
  viability, T/C: 36.8%
[22]
  viability, T/C: 25.3%
Second compound 1 µM, first compound 3.16 µM
  viability, T/C: 26.4%
Second compound 1 µM, first compound 10 µM
  viability, T/C: 29.9%
[23]
  viability, T/C: 94.6%
[24]
  viability, T/C: 76.3%
[25]
  viability, T/C: 34.2%
[26]
  viability, T/C: 27.1%
Second compound 3.16 µM, first compound 3.16 µM
  viability, T/C: 25.4%
Second compound 3.16 µM, first compound 10 µM
  viability, T/C: 37.2%
[27]
  viability, T/C: 92%
[28]
  viability, T/C: 70%
[29]
  viability, T/C: 37.8%
[30]
  viability, T/C: 29.9%
Second compound 10 µM, first compound 3.16 µM
  viability, T/C: 25.3%
Second compound 10 µM, first compound 10 µM
  viability, T/C: 35.7%

## COc1cccc(OCCCN)c1-c1cc(Nc2cnc(C#N)cn2)n[nH]1 + Nc1ccc(C#CCN(C(=O)Cc2ncc(C(F)(F)F)cc2C(F)(F)F)c2ccc(F)cc2)nn1
[1]
  IC50: 7.16 nM
[2]
  IC50: 6.19 nM
[3]
  IC50: 6.72 nM
[4]
  IC50: 5.96 nM
[5]
  IC50: 5.77 nM
[6]
  IC50: 5.9 nM
Second compound 0.0316 µM, first compound 0.00316 µM
  viability, T/C: 99%
Second compound 0.0316 µM, first compound 0.01 µM
  viability, T/C: 29.9%
[7]
  viability, T/C: 6.2%
[8]
  viability, T/C: 5.95%
[9]
  viability, T/C: 4.32%
[10]
  viability, T/C: 4.9%
Second compound 0.1 µM, first compound 0.00316 µM
  viability, T/C: 94.9%
Second compound 0.1 µM, first compound 0.01 µM
  viability, T/C: 18%
[11]
  viability, T/C: 5.46%
[12]
  viability, T/C: 5.78%
[13]
  viability, T/C: 5.23%
[14]
  viability, T/C: 3.98%
Second compound 0.316 µM, first compound 0.00316 µM
  viability, T/C: 119%
Second compound 0.316 µM, first compound 0.01 µM
  viability, T/C: 13.8%
[15]
  viability, T/C: 5.29%
[16]
  viability, T/C: 4.56%
[17]
  viability, T/C: 4.96%
[18]
  viability, T/C: 4.07%
Second compound 1 µM, first compound 0.00316 µM
  viability, T/C: 101%
Second compound 1 µM, first compound 0.01 µM
  viability, T/C: 8.35%
[19]
  viability, T/C: 5.83%
[20]
  viability, T/C: 5.25%
[21]
  viability, T/C: 5.41%
[22]
  viability, T/C: 4.11%
Second compound 3.16 µM, first compound 0.00316 µM
  viability, T/C: 94.9%
Second compound 3.16 µM, first compound 0.01 µM
  viability, T/C: 9.02%
[23]
  viability, T/C: 5.49%
[24]
  viability, T/C: 5.19%
[25]
  viability, T/C: 6.6%
[26]
  viability, T/C: 4.85%
Second compound 10 µM, first compound 0.00316 µM
  viability, T/C: 100%
Second compound 10 µM, first compound 0.01 µM
  viability, T/C: 7.29%
[27]
  viability, T/C: 6.73%
[28]
  viability, T/C: 5.13%
[29]
  viability, T/C: 4.64%
[30]
  viability, T/C: 4.87%

## COc1cccc(OCCCN)c1-c1cc(Nc2cnc(C#N)cn2)n[nH]1
Compound 0.00316 µM
  viability, T/C: 36.5% and 110% and 99.9%
Compound 0.0316 µM
  viability, T/C: 6.92% and 6.25% and 7.08%
Compound 0.1 µM
  viability, T/C: 6.87% and 6.41% and 5.7%
Compound 0.316 µM
  viability, T/C: 6.1% and 4.51% and 5.49%
Compound 1 µM
  viability, T/C: 4.67% and 5.09% and 3.72%
Curve of compound
  IC50: < 3.16 nM and 7.96 nM and 7.26 nM

— PubChem BioAssay AID1963847 (Molecular Pharmacology Branch, DTP, NCI, 2024)
